Experiments:
Assay in all cases: relative viability (nuclei count vs DMSO), 5 days (fraction); higher = more cells survive
[1] = compound: CN1C=C(C2=CC=CC=C21)/C=C\3/C4=C(C=CC=N4)NC3=O + COc1cc2c(Oc3ccc(NC(=O)C4(C(=O)Nc5ccc(F)cc5)CC4)cc3F)ccnc2cc1OCCCN1CCOCC1 [Foretinib] (partner 0.25 µM)
Method in brief: (§1)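 Nuclei were stained with Hoechst during a one-step fixation (final 0.05% Triton X-100, 1% formaldehyde, 1 ug/ml Hoechst) carried out 5 days after dosing, then counted on 4× images. The cells, lung cancer lines in 1536-well plates, had been dosed by pin tool the day after seeding with one drug alone or a fixed anchor-drug dose plus five library-drug doses (not always all listed) in √10 steps. Relative viability is the nuclei count in treated wells divided by that in vehicle wells, and each value is the median of duplicate plates.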

[2] = compound: CC(=O)Nc1cccc(-n2c(=O)n(C3CC3)c(=O)c3c(Nc4ccc(I)cc4F)n(C)c(=O)c(C)c32)c1 [Trametinib] + CS(=O)(=O)N1CCN(Cc2cc3nc(-c4cccc5[nH]ncc45)nc(N4CCOCC4)c3s2)CC1 [Pictilisib] (partner 1 µM)
Method in brief: as §1

[3] = compound: CN1C=C(C2=CC=CC=C21)/C=C\3/C4=C(C=CC=N4)NC3=O + CC(=O)Nc1cccc(-n2c(=O)n(C3CC3)c(=O)c3c(Nc4ccc(I)cc4F)n(C)c(=O)c(C)c32)c1 [Trametinib] (partner 0.02 µM)
Method in brief: as §1

[4] = compound: CN1C=C(C2=CC=CC=C21)/C=C\3/C4=C(C=CC=N4)NC3=O + Cc1nc(NC(=O)N2CCC[C@H]2C(N)=O)sc1-c1ccnc(C(C)(C)C(F)(F)F)c1 [Alpelisib] (partner 2 µM)
Method in brief: as §1

Cell Line	relative viability ([1]; first compound 0.02 µM)	relative viability ([1]; first compound 0.06325 µM)	relative viability ([1]; first compound 0.2 µM)	relative viability ([1]; first compound 0.6325 µM)	relative viability ([1]; first compound 2 µM)	relative viability ([2]; first compound 0.0025 µM)	relative viability ([2]; first compound 0.007906 µM)	relative viability ([2]; first compound 0.025 µM)	relative viability ([2]; first compound 0.07906 µM)	relative viability ([2]; first compound 0.25 µM)	relative viability ([3]; first compound 0.02 µM)	relative viability ([3]; first compound 0.06325 µM)	relative viability ([3]; first compound 0.2 µM)	relative viability ([3]; first compound 0.6325 µM)	relative viability ([3]; first compound 2 µM)	relative viability ([4]; first compound 0.02 µM)	relative viability ([4]; first compound 0.06325 µM)	relative viability ([4]; first compound 0.2 µM)	relative viability ([4]; first compound 0.6325 µM)	relative viability ([4]; first compound 2 µM)
201T	1.27	1	0.983	0.773	0.713	0.653	0.625	0.542	0.71	0.615	0.758	0.727	0.754	0.797	0.763	0.998	1.04	1.08	1	0.913
A549	1.03	0.97	1.04	1.13	1.16	0.375	0.237	0.179	0.121	0.072	–	–	–	–	–	0.863	0.736	0.843	0.808	0.691
A-427	1.18	1.21	–	0.958	1.1	0.632	0.426	0.2	0.184	0.164	0.796	0.721	–	0.708	0.813	1.08	1.02	–	1.08	1.13
ABC-1	0.929	1.08	1.16	1.13	1.13	0.552	0.56	0.363	0.458	0.28	–	–	–	–	–	1.05	0.785	0.84	0.714	0.923
BEN	0.66	0.742	–	0.483	0.484	0.487	0.472	–	0.419	0.426	1.05	0.981	1	0.966	1.18	1.05	0.932	0.981	1	1.13
CAL-12T	1.08	1.03	1.08	1.08	1.03	0.348	0.29	0.271	0.279	0.318	0.32	0.308	0.315	0.325	0.298	1.47	0.924	1.1	1.16	1.06
COR-L23	1.11	1.04	0.92	1.1	1.08	0.72	0.756	0.555	0.439	0.308	0.519	0.575	0.576	0.545	0.606	0.764	0.698	0.718	0.724	0.589
COR-L 105	1.09	0.993	0.834	0.957	0.952	0.311	0.343	0.303	0.31	0.315	0.402	0.462	0.396	0.512	0.506	0.907	0.898	0.922	1.01	0.874
Calu-6	0.818	0.893	0.727	0.779	0.834	0.739	0.45	0.193	0.136	0.121	–	–	–	–	–	0.823	0.856	0.959	0.975	0.911
ChaGo-K-1	0.921	0.911	0.828	0.861	0.918	0.841	0.47	0.694	0.261	0.461	0.864	0.917	0.868	0.871	0.871	–	–	–	–	–
EBC-1	0.0992	0.108	0.0997	0.0962	0.0995	0.244	0.204	0.134	0.137	0.168	–	–	–	–	–	0.727	0.776	0.894	0.823	0.784
EKVX	0.877	0.842	0.806	0.662	0.773	0.363	0.318	0.228	0.214	0.193	0.268	–	–	0.233	0.201	0.765	0.763	0.795	0.725	0.703
EMC-BAC-2	1.04	0.996	1.01	1.06	1.08	0.517	0.429	0.379	0.423	0.331	0.926	0.872	0.892	0.927	0.956	0.673	0.452	0.736	0.768	0.799
EPLC-272H	0.564	0.677	0.603	–	0.663	0.268	0.221	0.175	0.174	0.0951	0.348	0.263	–	0.283	0.267	1.14	0.752	–	0.83	0.835
H3255	1.26	0.954	0.72	0.742	0.899	0.436	0.344	0.334	0.237	0.206	0.726	–	0.57	0.775	0.668	0.705	0.722	0.642	0.757	0.855
HARA	0.94	0.68	–	0.818	0.848	0.384	0.342	0.131	0.207	0.213	0.673	0.635	–	0.605	0.492	0.677	0.812	0.783	0.63	0.734
HCC-15	0.947	0.935	1.03	1.01	0.998	0.596	0.232	0.175	0.158	0.182	0.411	0.392	0.403	0.377	0.367	1.01	0.848	0.808	0.889	0.958
HCC-44	–	–	–	–	–	0.581	0.428	0.276	0.291	0.272	1.08	1.12	0.968	1.04	0.884	0.737	0.74	0.722	0.564	0.705
HCC-78	0.545	0.554	–	0.509	0.552	0.205	0.154	0.185	0.152	0.212	0.522	0.675	0.706	0.553	0.694	0.289	0.509	0.304	0.282	0.287
HCC-366	0.934	1.01	0.886	0.916	0.896	0.09	0.138	0.102	0.1	0.0818	0.279	0.316	0.307	0.291	0.318	0.296	0.328	0.284	0.31	0.267

Cell Line	relative viability ([1]; first compound 0.02 µM)	relative viability ([1]; first compound 0.06325 µM)	relative viability ([1]; first compound 0.2 µM)	relative viability ([1]; first compound 0.6325 µM)	relative viability ([1]; first compound 2 µM)	relative viability ([2]; first compound 0.0025 µM)	relative viability ([2]; first compound 0.007906 µM)	relative viability ([2]; first compound 0.025 µM)	relative viability ([2]; first compound 0.07906 µM)	relative viability ([2]; first compound 0.25 µM)	relative viability ([3]; first compound 0.02 µM)	relative viability ([3]; first compound 0.06325 µM)	relative viability ([3]; first compound 0.2 µM)	relative viability ([3]; first compound 0.6325 µM)	relative viability ([3]; first compound 2 µM)	relative viability ([4]; first compound 0.02 µM)	relative viability ([4]; first compound 0.06325 µM)	relative viability ([4]; first compound 0.2 µM)	relative viability ([4]; first compound 0.6325 µM)	relative viability ([4]; first compound 2 µM)
HCC-827	0.851	1.01	–	1.18	0.893	0.949	0.986	0.959	0.666	0.627	0.509	0.528	–	0.571	0.566	0.969	0.992	–	0.978	0.984
HOP-62	1.11	1.17	1.22	1.13	1.12	0.597	0.229	0.128	0.133	0.0772	0.424	0.415	–	0.354	0.325	0.821	0.843	0.957	0.926	1.07
IA-LM	1.28	1.01	1.12	1.19	1.23	0.142	0.091	0.073	0.0818	0.0673	–	–	–	–	–	0.972	0.549	0.906	0.736	0.681
LC-2-ad	0.901	0.843	0.864	1.03	0.931	0.412	0.444	0.237	0.216	0.195	0.98	0.865	0.967	0.953	0.87	0.93	0.891	0.859	0.892	0.891
LCLC-97TM1	0.891	0.793	0.91	1.03	0.921	0.141	0.135	0.11	0.128	0.0971	–	0.19	0.189	0.198	0.19	0.205	–	–	0.208	0.202
LCLC-103H	0.735	0.685	0.813	0.802	0.858	0.641	0.547	0.451	0.458	0.406	0.645	0.691	0.718	0.667	0.681	1.05	1.02	0.937	0.941	0.924
LK-2	–	–	–	1.23	1.41	0.457	0.571	0.54	0.575	0.294	–	0.683	0.743	0.701	0.794	–	0.766	0.76	0.943	0.61
LOU-NH91	0.904	0.915	0.835	0.925	0.9	0.469	0.497	0.479	0.45	0.353	0.749	0.751	0.746	0.678	0.74	0.658	0.698	0.598	0.698	0.69
LU99A	0.637	0.699	0.759	0.845	0.835	0.279	0.318	0.217	0.197	0.197	0.554	0.504	0.494	0.588	0.597	0.479	0.487	0.555	0.5	0.504
NCI-H522	–	–	–	–	–	–	–	–	–	–	0.746	0.712	0.793	0.752	0.852	–	–	–	–	–
NCI-H1299	1.09	1.1	1.16	1.07	1.02	0.475	0.47	0.32	0.0746	0.157	–	–	–	–	–	1.06	1.14	1.14	1.1	1.06
NCI-H1563	1.04	0.897	0.955	0.943	0.901	0.624	0.72	0.652	0.572	0.536	–	–	–	–	–	0.898	0.951	0.73	0.977	0.863
NCI-H1623	0.838	0.878	0.701	0.712	0.755	–	–	–	–	–	–	–	–	–	–	–	–	–	–	–
NCI-H1648	–	–	–	–	–	–	–	–	–	–	0.691	0.543	0.42	0.532	0.482	–	–	–	–	–
NCI-H1650	1.21	1.05	0.98	1.26	1.22	0.608	0.61	0.448	0.364	0.113	0.559	0.535	0.559	0.582	0.53	–	–	–	–	–
NCI-H1703	0.345	0.354	0.311	0.347	0.349	0.23	0.224	0.206	0.269	0.258	–	–	–	–	–	0.436	0.299	0.324	0.41	0.268
NCI-H1792	–	–	–	–	–	0.227	0.183	0.182	0.152	0.104	0.474	0.54	0.462	0.353	0.406	0.536	0.723	0.608	–	0.581
NCI-H2342	1.15	0.927	1.05	0.914	1.13	–	–	–	–	–	0.921	0.753	0.725	0.655	0.686	–	–	–	–	–
SW 900	0.961	0.702	–	0.866	0.723	–	–	–	–	–	0.763	–	–	0.676	0.799	–	–	–	–	–

— the supplement of paper PMC10307832
